Test results: US20240285637A1, “PHOSPHODIESTERASE INHIBITORS FOR THE MITIGATION OF FRAGILE X SYNDROME SYMPTOMS” (THE ROYAL INSTITUTION FOR THE ADVANCEMENT OF …, priority 2021, published 2024)
“Also recorded” adds a separate entry of the source.

Legend:
Format in all cases: cell-based, mouse
[1] = tested on: cerebellar stellate cells; assay: Minimal stimulation protocol, evoked IPSCs before and after HFS (failure rate of GABAergic transmission)
[2] = tested on: blood vessels in the somatosensory cortex; assay: Acute slice vascular reactivity, somatosensory cortex; set-up: effect on the NMDA response (vasodilation) / vasodilation (direct action on blood vessels): dose or concentration left out as unconfirmed; conditions: for vasodilation of pre-constricted blood vessels: bath application of NMDA
[3] = tested on: blood vessels (capillaries) in the molecular layer of the cerebellum; assay: Acute slice vascular reactivity, cerebellar vermis slices (U46619 constriction, NMDA dilation); set-up: effect on the NMDA response (vasodilation) / vasodilation (direct action on blood vessels): dose or concentration left out as unconfirmed; conditions: for vasodilation of pre-constricted blood vessels: NMDA 50 μM, 5 mins, after U46619
[4] = Fmr1 KO stellate cells, 10 μM external MPEP, baseline, n=7
[5] = Fmr1 KO stellate cells, 10 μM external MPEP, post-HFS, n=7

## O=C(O)CN(CC(=O)O)c1ccccc1OCCOc1ccccc1N(CC(=O)O)CC(=O)O [BAPTA, 1,2-bis(o-aminophenoxy)ethane-N,N,N′,N′-tetraacetic acid)]
[1]; WT mice, high BAPTA internal solution, data not shown
  change of failure rate post-HFS: did not change their failure rate

## COc1ccc2c(c1)c(C1=C(c3c[nH]c4ccccc34)C(=O)NC1=O)cn2CCCN(C)C [Gö6983]
[1]; WT mice, kinase (PKC) inhibitor
  change of failure rate from baseline to post-HFS: did not change

## Cc1cccc(C#Cc2ccccc2)n1 [MPEP, 2-Methyl-6-(phenylethynyl)-pyridine]
[1]; Fmr1 KO stellate cells, 10 μM MPEP
  onset of iLTD: prevents the onset of iLTD
[1]; [4]
  failure rate of GABAergic transmission (mean): 77.21+/−3.75%
  time latency of synaptic events (mean): 2.78 ± 0.24 ms
[1]; [5]
  failure rate of GABA-evoked events (mean): 79.98+/−4.58%
  time latency of synaptic events (mean): 2.32 ± 0.29 ms
[1]; α3 KO mice, MPEP, data not shown
  change of failure rate after HFS protocol: slightly decreased their failure rate

## CN[C@H](CC(=O)O)C(=O)O [NMDA, N-methyl-D-aspartate]
[2]; Fmr1 KO cortex
  vasodilation of pre-constricted blood vessels: failed to induce vasodilation
[2]; wildtype cortical blood vessels
  vasodilation of pre-constricted blood vessels: robust vasodilation
[3]; Fmr1 KO cerebellar slices
  vasodilation of pre-constricted blood vessels: failed to promote blood vessel dilation; also recorded: failed to induce vasodilation
[3]; WT cerebellar slices
  vasodilation of pre-constricted blood vessels: caused vasodilation; also recorded: robust vasodilation

## COc1ccc(Cc2nccc3cc(OC)c(OC)cc23)cc1OC [papaverine]
[2]; Fmr1 KO cortex
  vasodilation (direct action on blood vessels): able to induce vasodilation
[3]; Fmr1 KO cerebellum
  vasodilation (direct action on blood vessels): able to induce vasodilation

## NC1=N[C@H](O)[C@H]2[C@H]3O[C@]4(O)O[C@@H]([C@@H](O)[C@@]2(N1)[C@@H]4O)[C@]3(O)CO [tetrodotoxin]
[2]
  effect on NMDA-induced vasodilation: blocked
[3]
  effect on NMDA-induced vasodilation: completely blocked vasodilation
